Columns and labels:
[1] = compound: C=CC(=O)Nc1ccc(C(=O)Nc2[nH]nc3c2CN(C(=O)N[C@H](CN(C)C)c2ccccc2)C3(C)C)cc1 [YKL-5-124]
[2] = compound: CC1=C(N=C(N=C1N)[C@H](CC(=O)N)NC[C@@H](C(=O)N)N)C(=O)N[C@@H]([C@H](C2=CN=CN2)OC3C(C(C(C(O3)CO)O)O)OC4C(C(C(C(O4)CO)O)OC(=O)N)O)C(=O)N[C@H](C)[C@H]([C@H](C)C(=O)N[C@@H]([C@@H](C)O)C(=O)NCCC5=NC(=CS5)C6=NC(=CS6)C(=O)NCCC[S+](C)C)O [Bleomycin]; settings: main component drawn
[3] = compound: CCC(=O)Nc1ccc(C(=O)Nc2ccc(Nc3ncc4c(n3)N(C)c3ccc(C)cc3C(=O)N4C)cc2)cc1 [FMF-03-145-1]
[4] = compound: CC[C@@]1(O)C(=O)OCc2c1cc1n(c2=O)Cc2cc3c(CN(C)C)c(O)ccc3nc2-1 [Topotecan]
[5] = compound: COc1cc([C@@H]2c3cc4c(cc3[C@@H](O[C@@H]3O[C@@H]5CO[C@@H](C)O[C@H]5[C@H](O)[C@H]3O)[C@H]3COC(=O)[C@H]23)OCO4)cc(OC)c1O [Etoposide]
[6] = compound: COc1cccc(OCCCN)c1-c1cc(Nc2cnc(C#N)cn2)n[nH]1
[7] = compound: N.N.Cl[Pt]Cl [Cisplatin]
[8] = compound: CC(=O)c1c(C)c2cnc(Nc3ccc(N4CCN(CCOCCOCCOCCNC(=O)COc5cccc6c5C(=O)N(C5CCC(=O)NC5=O)C6=O)CC4)cn3)nc2n(C2CCCC2)c1=O [BSJ-03-123]; test: GR value, 72 h; higher = faster growth (1 = untreated, <0 = killing);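 note: breast cancer and non-malignant breast epithelial lines, nine half-log doses, viable cells counted by Hoechst and LIVE/DEAD dye imaging versus time-zero plates and DMSO controls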
[9] = compound: CCOc1cc2ncc(C#N)c(Nc3ccc(OCc4ccccn4)c(Cl)c3)c2cc1NC(=O)/C=C/CN(C)C [Neratinib/HKI272]; test: as above
[10] = compound: CO[C@H]1C[C@@H]2CC[C@@H](C)[C@@](O)(O2)C(=O)C(=O)N2CCCC[C@H]2C(=O)O[C@H]([C@H](C)C[C@@H]2CC[C@@H](OCCO)[C@H](OC)C2)CC(=O)[C@H](C)/C=C(\C)[C@@H](O)[C@@H](OC)C(=O)[C@H](C)C[C@H](C)/C=C/C=C/C=C/1C [Everolimus]
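Throughout, for GR50, 72 h: breast cancer and non-malignant breast epithelial cell lines, Deep Dye Drop or Dye Drop imaging, nine half-log doses, GR normalized to time-zero plates and DMSO-only controls.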

Row | Cell Line | GR50, 72 h [1] | GR50, 72 h [2] | GR50, 72 h [3] | GR50, 72 h [4] | GR50, 72 h [5] | GR50, 72 h [6] | GR50, 72 h [7] | GR value ([8]; 0.001 µM) | GR value ([8]; 0.003162 µM) | GR value ([8]; 0.01 µM) | GR value ([8]; 0.03162 µM) | GR value ([8]; 0.1 µM) | GR value ([8]; 0.3162 µM) | GR value ([8]; 1 µM) | GR value ([8]; 3.162 µM) | GR value ([8]; 10 µM) | GR value ([9]; 0.0003162 µM) | GR value ([9]; 0.001 µM) | GR value ([9]; 0.003162 µM) | GR value ([9]; 0.01 µM) | GR value ([9]; 0.03162 µM) | GR value ([9]; 0.1 µM) | GR value ([9]; 0.3162 µM) | GR value ([9]; 1 µM) | GR value ([9]; 3.162 µM) | GR50, 72 h [10]
1 | MDAMB453 | < 0.001 µM | 1.31 µM | 0.00648 µM | 0.00669 µM | 0.383 µM | 0.0005 µM | 3.4 µM | 0.989 GR | 0.922 GR | 0.874 GR | 0.843 GR | 0.841 GR | 0.699 GR | 0.639 GR | 0.575 GR | -0.011 GR | 0.988 GR | 0.937 GR | 0.825 GR | 0.596 GR | 0.44 GR | 0.366 GR | 0.139 GR | -0.0602 GR | -0.339 GR | –
2 | SKBR3 | < 0.001 µM | 1.05 µM | 0.00508 µM | 0.0165 µM | 0.398 µM | 0.000441 µM | 5.11 µM | 0.911 GR | 0.855 GR | 0.825 GR | 0.79 GR | 0.644 GR | 0.75 GR | 0.506 GR | 0.514 GR | -0.35 GR | 0.841 GR | 0.631 GR | 0.264 GR | 0.0804 GR | 0.0019 GR | -0.0509 GR | -0.163 GR | -0.252 GR | -0.246 GR | < 0.001 µM
3 | SUM149 | < 0.001 µM | 0.039 µM | 0.00558 µM | 0.00569 µM | 0.127 µM | 0.000514 µM | 0.571 µM | 0.996 GR | 0.91 GR | 0.904 GR | 0.794 GR | 0.81 GR | 0.72 GR | 0.579 GR | 0.428 GR | 0.0273 GR | 1.04 GR | 1.01 GR | 1.02 GR | 0.895 GR | 0.663 GR | 0.408 GR | 0.251 GR | 0.199 GR | 0.144 GR | > 10 µM
4 | SUM159 | < 0.001 µM | 0.262 µM | 0.00548 µM | 0.0182 µM | 0.398 µM | 0.000711 µM | 4.32 µM | 0.918 GR | 0.925 GR | 0.897 GR | 0.826 GR | 0.826 GR | 0.797 GR | 0.687 GR | 0.526 GR | -0.042 GR | 1.01 GR | 1.02 GR | 1.02 GR | 0.994 GR | 0.96 GR | 0.927 GR | 0.851 GR | 0.705 GR | 0.507 GR | > 10 µM
5 | SUM1315 | 0.0168 µM | 0.214 µM | 0.0047 µM | 0.0118 µM | 0.29 µM | 0.000483 µM | 1.28 µM | 0.883 GR | 0.736 GR | 0.79 GR | 0.651 GR | 0.822 GR | 0.641 GR | 0.497 GR | 0.572 GR | 0.21 GR | 1.07 GR | 0.992 GR | 1.01 GR | 0.908 GR | 0.69 GR | 0.517 GR | 0.309 GR | 0.162 GR | 0.101 GR | –
